In assay [1] the test system is Plasmodium falciparum. Briefly: Antiplasmodial activity against chloroquine-resistant Plasmodium falciparum K1. Type of assay: functional, organism-based.
For assay [2], the target named is T1, 3-oxoacyl-acyl-carrier protein reductase (Plasmodium falciparum, UniProt Q965D6).
T1 sequence (Q965D6 whole entry): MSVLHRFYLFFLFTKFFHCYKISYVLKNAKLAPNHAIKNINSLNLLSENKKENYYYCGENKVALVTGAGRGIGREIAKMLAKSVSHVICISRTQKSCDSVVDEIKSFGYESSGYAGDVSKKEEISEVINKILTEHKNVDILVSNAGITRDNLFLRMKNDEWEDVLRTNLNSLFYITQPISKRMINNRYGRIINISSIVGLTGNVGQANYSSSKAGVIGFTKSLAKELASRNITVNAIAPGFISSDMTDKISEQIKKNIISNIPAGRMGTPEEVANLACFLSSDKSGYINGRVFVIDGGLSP
As to the kind of experiment: Inhibition of FabG.

In assay [3] the target is T2, Enoyl-acyl-carrier protein reductase (Plasmodium falciparum, UniProt Q965D5).
T2 sequence (Q965D5 whole entry): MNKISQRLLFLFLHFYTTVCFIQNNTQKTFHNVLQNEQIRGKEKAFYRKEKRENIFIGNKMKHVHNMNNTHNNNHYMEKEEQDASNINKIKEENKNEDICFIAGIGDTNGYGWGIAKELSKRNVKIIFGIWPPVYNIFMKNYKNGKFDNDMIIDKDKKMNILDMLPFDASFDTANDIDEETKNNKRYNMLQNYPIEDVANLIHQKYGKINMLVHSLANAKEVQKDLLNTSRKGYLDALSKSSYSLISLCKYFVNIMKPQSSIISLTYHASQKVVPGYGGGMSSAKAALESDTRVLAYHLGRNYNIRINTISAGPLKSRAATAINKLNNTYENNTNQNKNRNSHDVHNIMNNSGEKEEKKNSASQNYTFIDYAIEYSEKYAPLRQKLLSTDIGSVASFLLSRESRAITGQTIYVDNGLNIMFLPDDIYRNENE
Briefly: Inhibition of FabI.

The test system of assay [4] is Plasmodium falciparum. Briefly: Antiplasmodial activity against chloroquine-sensitive Plasmodium falciparum NF54. Type of assay: functional, organism-based.
For assay [5], the target named is T1, 3-oxoacyl-acyl-carrier protein reductase. As to the kind of experiment: Inhibition of FabG in presence of NADPH.
The target is the same in assay [6]. As to the kind of experiment: Inhibition of FabG in presence of acetoacetyl-CoA.
The target of the next assay is T3, Fatty acid synthase (Plasmodium falciparum, UniProt Q965D7).
T3 sequence (Q965D7 whole entry): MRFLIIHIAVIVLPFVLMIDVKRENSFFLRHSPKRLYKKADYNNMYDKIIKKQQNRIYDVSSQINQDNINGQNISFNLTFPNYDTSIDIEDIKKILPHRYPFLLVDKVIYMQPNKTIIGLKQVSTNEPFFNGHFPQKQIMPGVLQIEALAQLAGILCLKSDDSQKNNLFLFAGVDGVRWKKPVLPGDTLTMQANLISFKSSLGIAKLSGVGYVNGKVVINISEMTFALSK
As to the kind of experiment: Inhibition of FabZ.

One may read the IC50 as the midpoint of a concentration-inhibition curve. A lower IC50 goes with inhibition by little substance. For orientation: Ki means a dissociation constant, usually derived from enzyme kinetics or from competition with a known ligand.

Regarding `O=c1cc(-c2ccc(O)c(O)c2)oc2cc(O)cc(O)c12` [LUTEOLIN], the IC50 was 9.6 µM with Plasmodium falciparum [1]; 4 µM in assay [2]; 2000 nM in assay [3]; 10.7 µM in the assay on Plasmodium falciparum [4]; 5000 nM at Fatty acid synthase. Also, the Ki in assay [3] came out at 2100 nM; in assay [5], 800 nM; in assay [6] it was 1.8 µM; on Fatty acid synthase, 11.5 µM.

Turning to `O=c1c(O)c(-c2ccc(O)c(O)c2)oc2cc(O)cc(O)c12` [QUERCETIN], the IC50 in the assay on Plasmodium falciparum [1] was determined as 8.9 µM; in assay [2] it was 5.4 µM; in assay [3], 1500 nM; in the assay with Plasmodium falciparum [4], 10 µM; against Fatty acid synthase it was 1500 nM.

`O=c1c(O)c(-c2ccc(O)cc2O)oc2cc(O)cc(O)c12` [MORIN]: the IC50 in the assay on Plasmodium falciparum [1] turned out to be 16.1 µM; in assay [2], 2.3 µM; in assay [3], 5000 nM; with Plasmodium falciparum [4], 110 µM; on Fatty acid synthase, 8000 nM.

For `O=C(O[C@@H]1Cc2c(O)cc(O)cc2O[C@H]1c1ccc(O)c(O)c1)c1cc(O)c(O)c(O)c1` [(-)-CATECHINGALLATE], the IC50 with Plasmodium falciparum [1] was 0.4 µM; in assay [2], 1 µM; in assay [3], 300 nM; in the assay on Plasmodium falciparum [4], 3.2 µM; against Fatty acid synthase, 400 nM. The Ki in assay [3] turned out to be 40 nM; in assay [5], 2800 nM; in assay [6], 6.4 µM; at Fatty acid synthase, 2.8 µM.

Turning to `O=c1c(O)c(-c2cc(O)c(O)c(O)c2)oc2cc(O)cc(O)c12` [MYRICETIN], the IC50 in the assay with Plasmodium falciparum [1] was 12.9 µM; in assay [2] it was 14 µM; in assay [3], 400 nM; in the assay with Plasmodium falciparum [4], 57.3 µM; at Fatty acid synthase, 2000 nM.

The values are drawn from ChEMBL document CHEMBL1148505, “Inhibition of Plasmodium falciparum fatty acid biosynthesis: evaluation of FabG, FabZ, and FabI as drug targets for flavonoids” (J Med Chem, 2006).
